What was measured:
beagle dogs [1] = test: Single oral dose (capsule) toxicity and pharmacokinetic study (non-GLP); format: in vivo; details: single dose 300 mg/kg
Experimental: SRP-001 was prepared into capsules for oral administration. Three experimentally non-naïve Beagle dogs, at least 7 months old and weighing 7.7 to 10 kg prior to treatment initiation, were administered a single dose of 300 mg/kg SRP-001 (Calvert Labs/Altasciences, Scott Township, PA USA). On the day of dosing, animals were observed prior to dose administration, approximately 1–3 h post-dose, and once on day 2. Body weights were recorded for all animals prior to dose administration for the preparation of the capsules. Blood for bioanalytical evaluation was collected at selected timepoints on day 1. Following the completion of the study, surviving animals were not euthanized. They were returned to the Calvert colony for an appropriate washout period before possible use in a subsequent study. […] Plasma samples were collected at seven different time points post-dose.

Sprague–Dawley rats = test: 5-day repeat-dose oral toxicity and toxicokinetic study (non-GLP); format: in vivo
Experimental: (§1) As part of a two-phase study, repeat-dose toxicity and toxicokinetics of SRP-001, when administered via oral gavage once daily to Sprague–Dawley rats for 5 d, was done (Calvert Labs/Altasciences, Scott Township, PA USA). The doses selected for Phase II were based on the results of Phase I. SRP-001 was administered to 20 naïve rats (5/group in Groups 5–8) once daily for 5 days via oral gavage for toxicology evaluation and once to 18 naïve rats (6/group in Groups 9–11) for toxicokinetic evaluation.
(§2) Mortality/morbidity was performed twice daily and once prior to sacrifice. Clinical observations were evaluated prior to each dose administration and approximately 1–3 h post-dose for animals in Groups 5–8. Body weights were recorded prior to randomization/selection, prior to dose administration on day 1 for animals in Groups 5–11, and prior to dose administration on day 5 for Groups 5–8. Food consumption was recorded for animals from Groups 5–8 on day 5. Blood for evaluation of hematology, coagulation and clinical chemistry and urine for urinalysis was collected from animals in Groups 5–8 on day 6. All animals in Groups 5–8 were sacrificed on […]. Selected tissues were harvested at necropsy, selected organs weighed, and selected tissues preserved. Blood for toxicokinetic evaluation was collected from animals in Groups 9–11 at selected timepoints on day 1 to ensure comprehensive data capture. These timepoints include 0 h (pre-dose) and post-dose intervals of 1, 2, 4, 8, and 24 h on both Day 1 and […] of the study. This schedule allows for a robust assessment of SRP-001's pharmacokinetic profile, including absorption, distribution, metabolism, and excretion and is in line with current FDA-guidelines for GLP studies.
(§3) Clinical signs included soft feces, brown staining of the anogenital area, and a few instances of red staining of the muzzle. […] Half-lives were 6.19 and 6.86 h at mid and high doses, respectively. […] Based on these observations, SRP-001 was considered to be tolerated at 1200 mg/kg when administered once daily for 5 consecutive days.

[2] = as above; format: in vivo, rats; details: Sprague-Dawley, rat, blood, po
Experimental: as §1, §2, §3

beagle dogs [3] = test: 7-day repeat-dose oral toxicity and toxicokinetic study, Phase II (non-GLP); format: in vivo
Experimental: (§4) In Phase II of this study, 0, 30, 100, or 300 mg/kg/d of SRP-001 was administered once daily for seven consecutive days to 1 Beagle dog/sex/dose (Calvert Labs/Altasciences, Scott Township, PA USA). Mortality/morbidity was observed twice daily and once prior to scheduled sacrifice. Clinical observations were evaluated prior to each dose administration and at approximately 1–3 h post-dose and once prior to scheduled sacrifice on day 8. Body weights were recorded on days 1 and 7, and a fasted body weight was recorded prior to scheduled sacrifice on day 8. Food consumption was recorded daily. Blood for evaluation of hematology, coagulation, and clinical chemistry parameters and urine for urinalysis was collected from all animals prior to treatment initiation and from all Phase II animals prior to scheduled sacrifice on day 8. Blood for toxicokinetic evaluation was collected at selected time points on days 1 and 7. Selected tissues were harvested and weighed at necropsy. No microscopic evaluations were performed. […] The clinical observations corroborated with findings of red discoloration in the duodenum of the control group female, the jejunum of the low-dose male, and the colon of both high-dose dogs.
(§5) The reason for this is unclear; however, it may be due to a low sample size (n = 2 per dose group). Half-lives ranged from approximately 1 to 3.5 h and increased with dose and time. […] Based on these observations, SRP-001 was considered to be tolerated at 300 mg/kg when administered once daily for 7 consecutive days. Our toxicokinetic analysis indicates elevated systemic exposures to SRP-001 on Day 1 relative to Day 7. […] A plausible mechanistic explanation for this observed decrease is the induction of metabolic enzymes, likely involving UGT and potentially CYP3A enzymes, as elaborated above and substantiated by previous research. […] The NOAEL exposure parameters align well with the highest SAD dose in the Phase 1 trial, reinforcing the drug's safety profile. The observed PK decrease is not attributed to emesis but likely to enzymatic induction and will be the subject for future investigation.

[4] = as above; format: in vivo; details: both sexes, Beagle, dog, in vivo, 300 mg/kg/day, 30, 100, 300 mg/kg/d, days 1 and 7
Experimental: as §4, §5

beagle dogs [5] = details: dog, in vivo
Experimental: Two beagle dogs (1/sex) were administered 30, 100, 250, or 500 mg/kg SRP-001. […] After a period of at least 2 d (minimum of 44 h) following the previous dose of test article, additional dose levels of SRP-001, as indicated above, were administered by oral gavage to the same 2 dogs (1 male and 1 female). Each dose was based on the dog’s most recent body weight. Mortality/morbidity was observed twice daily and once prior to scheduled sacrifice. Body weights were recorded prior to randomization/selection, prior to each dose administration, and prior to scheduled sacrifice. At scheduled sacrifice, a gross necropsy was performed, and the tissues were appropriately discarded. […] Doses for Phase II of the study were set based on Phase I results. The actual dose amounts selected for Phase II of the study were 0, 30, 100, or 300 mg/kg/d of SRP-001. These doses were administered once daily for seven consecutive days to 1 Beagle dog/sex/dose.

With `CCN(CC)C(=O)c1ccccc1S(=O)(=O)NCC(=O)Nc1ccc(O)cc1` [SRP-001, N,N-diethyl-2-[[2-(4-hydroxyanilino)-2-oxo-ethyl]sulfamoyl]benzamide] the “Bioavailability (bioanalytical analysis of plasma)” value (beagle dogs [1]) was “poor bioavailability”, the Tolerability (beagle dogs [1]) was “well tolerated” and the “AUC and Cmax levels versus dose” value (Sprague–Dawley rats; day 1) was “increased in a dose-dependent manner”. For the same molecule, the “Dose considered to be tolerated” value (Sprague–Dawley rats; once daily for 5 consecutive days) was 1200 mg/kg, the “Liver weights and cholesterol levels” value (Sprague–Dawley rats; once daily for 5 days) was “Test article-related increases” and the half-life ([2]; high dose) was 6.86 h. The Tmax ([2]; low dose) was 3 h, the Tmax ([2]; mid and high doses) was 4.5 h and the half-life ([2]; mid dose) was 6.19 h. For the same molecule, the “AUC and Cmax levels versus dose” value (beagle dogs [3]; dog, in vivo) was “increased in a dose-dependent manner”, the “Body weight, food consumption, hematology, clinical chemistry, coagulation parameters” value (beagle dogs [3]; dog, in vivo) was “No SRP-001-related differences” and the Clinical signs (beagle dogs [3]; dog, in vivo) was “loose or soft feces and emesis”. For the same molecule, the “Dose considered to be tolerated” value (beagle dogs [3]; once daily for 7 consecutive days) was 300 mg/kg, the Tmax [4] was 0.5 to 1.5 h and the half-life ([4]; read-out: Half-lives) was 1 to 3.5 h. For the same molecule, the Gross necropsy (beagle dogs [5]) was “some red discoloration in the GI tract”.

Reference: PMC11096368, “Transcriptomic signature, bioactivity and safety of a non-hepatotoxic analgesic generating AM404 in the midbrain PAG region” (Scientific Reports, 2024)
